# Results reported in US20250276979A1, “SARS-COV2 MAIN PROTEASE INHIBITORS” (Gilead Sciences, Inc., priority 2024, published 2025).
# Test system: SARS-CoV-2-NLuc in A549-hACE2 cells
# Assay: microbe, parasite or virus in culture
# Assay type: cell-based
# Conditions: Severe acute respiratory syndrome coronavirus 2, 48 h, read-out: MPro EC50
row,SMILES,EC50
1,"COc1ccc(Cl)c(-c2cc3[nH]c(=O)n([C@@H]4CCCNC(=O)C4)c(=O)c3s2)c1 (single isomer, unassigned) [Example 23]",12.7 nM
2,"COc1ccc(Cl)c(-c2cc3[nH]c(=O)n([C@H]4CCCNC(=O)C4)c(=O)c3s2)c1 (single isomer, unassigned) [Example 24]",142 nM

# Same assay, conditions: Severe acute respiratory syndrome coronavirus 2, 48 h; read-out: MPro EC50
row,SMILES,EC50
1,"COc1ccc(Cl)c(-c2cc3[nH]c(=O)n(C4CCNC(=O)C4)c(=O)c3s2)c1 (stereo not drawn) [Example 7, 6-(2-chloro-5-methoxy-phenyl)-3-(2-oxo-4-piperidyl)-1H-thieno[3,2-d]pyrimidine-2,4-dione]",77.1 nM
2,"COc1cc(-c2cc3c(s2)c(=O)n([C@@H]2CCCNC(=O)C2)c(=O)n3Cc2ncn(C)n2)c(Cl)cc1F [Example 41, (R)-6-(2-chloro-4-fluoro-5-methoxyphenyl)-1-((1-methyl-11H-1,2,4-triazol-3-yl)methyl)-3-(2-oxoazepan-4-yl)thieno[3,2-d]pyrimidine-2,4(1H,3H)-dione]",358 nM
3,"O=C1C[C@H](n2c(=O)[nH]c3cc(-c4ccccc4Cl)sc3c2=O)CCN1 [Example 4, (R)-6-(2-chlorophenyl)-3-(2-oxopiperidin-4-yl)thieno[3,2-d]pyrimidine-2,4(1H,3H)-dione]",978 nM
4,"COc1ccc(Cl)c(-c2cc3c(s2)c(=O)n([C@@H]2CCCNC(=O)C2)c(=O)n3CCC#N)c1 [Example 29, (R)-3-(6-(2-chloro-5-methoxyphenyl)-2,4-dioxo-3-(2-oxoazepan-4-yl)-3,4-dihydrothieno[3,2-d]pyrimidin-1(2H)-yl)propanenitrile]",< 5.64 nM
5,"Cc1cc(-c2cccc(Cl)c2-c2cc3[nH]c(=O)n(C4CCNC(=O)C4)c(=O)c3s2)cnn1 (stereo not drawn) [Example 10, 6-(2-chloro-6-(6-methylpyridazin-4-yl)phenyl)-3-(2-oxopiperidin-4-yl)thieno[3,2-d]pyrimidine-2,4(1H,3H)-dione]",5500 nM
6,"O=C1CC(n2c(=O)[nH]c3cc(-c4c(Cl)cccc4-c4ccc5c(c4)OC(F)(F)O5)sc3c2=O)CCN1 (stereo not drawn) [Example 13, 6-(2-chloro-6-(2,2-difluorobenzo[d][1,3]dioxol-5-yl)phenyl)-3-(2-oxopiperidin-4-yl)thieno[3,2-d]pyrimidine-2,4(1H,3H)-dione]",157 nM
7,"COc1cc(-c2cc3c(s2)c(=O)n([C@@H]2CCCNC(=O)C2)c(=O)n3CCC(=O)N(C)C)c(Cl)cc1F [Example 40, (R)-3-(6-(2-chloro-4-fluoro-5-methoxyphenyl)-2,4-dioxo-3-(2-oxoazepan-4-yl)-3,4-dihydrothieno[3,2-d]pyrimidin-1(2H)-yl)-N,N-dimethylpropanamide]",137 nM
8,"COc1cc(-c2cc3c(s2)c(=O)n([C@@H]2CCCNC(=O)C2)c(=O)n3CC(F)F)c(Cl)cc1F [Example 43, (R)-6-(2-chloro-4-fluoro-5-methoxyphenyl)-1-(2,2-difluoroethyl)-3-(2-oxoazepan-4-yl)thieno[3,2-d]pyrimidine-2,4(1H,3H)-dione]",34.4 nM
9,"Cn1cc(-c2cccc(Cl)c2-c2cc3[nH]c(=O)n(C4CCNC(=O)C4)c(=O)c3s2)c(C(F)(F)F)n1 (stereo not drawn) [Example 12, 6-(2-chloro-6-(1-methyl-3-(trifluoromethyl)-1H-pyrazol-4-yl)phenyl)-3-(2-oxopiperidin-4-yl)thieno[3,2-d]pyrimidine-2,4(1H,3H)-dione]",752 nM
10,"O=C1C[C@@H](n2c(=O)[nH]c3cc(-c4ccccc4Cl)sc3c2=O)CCN1 [Example 5, (S)-6-(2-chlorophenyl)-3-(2-oxopiperidin-4-yl)thieno[3,2-d]pyrimidine-2,4(1H,3H)-dione]",92.7 nM
11,"COc1cc(-c2cc3c(s2)c(=O)n([C@H]2CCCNC(=O)C2)c(=O)n3CC#N)c(Cl)cc1F [Example 35, (S)-2-(6-(2-chloro-4-fluoro-5-methoxyphenyl)-2,4-dioxo-3-(2-oxoazepan-4-yl)-3,4-dihydrothieno[3,2-d]pyrimidin-1(2H)-yl)acetonitrile]",84.6 nM
12,"Cc1noc(C)c1-c1cc2[nH]c(=O)n([C@H]3CCNC(=O)C3)c(=O)c2s1 [Example 19, (S)-6-(3,5-dimethylisoxazol-4-yl)-3-(2-oxopiperidin-4-yl)thieno[3,2-d]pyrimidine-2,4(1H,3H)-dione]",35800 nM
13,"COc1cc(-c2cc3c(s2)c(=O)n([C@@H]2CCCNC(=O)C2)c(=O)n3CCOC(F)(F)F)c(Cl)cc1F [Example 38, (R)-6-(2-chloro-4-fluoro-5-methoxyphenyl)-3-(2-oxoazepan-4-yl)-1-(2-(trifluoromethoxy)ethyl)thieno[3,2-d]pyrimidine-2,4(1H,3H)-dione]",208 nM
14,"COc1cc(-c2cc3[nH]c(=O)n(C4CCNC(=O)C4)c(=O)c3s2)c(Cl)cc1F (stereo not drawn) [Example 14, 6-(2-chloro-4-fluoro-5-methoxyphenyl)-3-(2-oxopiperidin-4-yl)thieno[3,2-d]pyrimidine-2,4(1H,3H)-dione]",318 nM
15,"COc1cc(-c2cc3c(s2)c(=O)n([C@@H]2CCCNC(=O)C2)c(=O)n3CCN2CCCC2=O)c(Cl)cc1F [Example 39, (R)-6-(2-chloro-4-fluoro-5-methoxyphenyl)-3-(2-oxoazepan-4-yl)-1-(2-(2-oxopyrrolidin-1-yl)ethyl)thieno[3,2-d]pyrimidine-2,4(1H,3H)-dione]",148 nM
16,"N#CCCn1c(=O)n([C@@H]2CCCNC(=O)C2)c(=O)c2sc(-c3ccccc3C#N)cc21 [Example 52, (R)-2-(1-(2-cyanoethyl)-2,4-dioxo-3-(2-oxoazepan-4-yl)-1,2,3,4-tetrahydrothieno[3,2-d]pyrimidin-6-yl)benzonitrile]",619 nM
17,"COc1cc(-c2cc3c(s2)c(=O)n([C@@H]2CCCNC(=O)C2)c(=O)n3CCC#N)c(Cl)cc1F [Example 48, (R)-3-(6-(2-chloro-4-fluoro-5-methoxyphenyl)-2,4-dioxo-3-(2-oxoazepan-4-yl)-3,4-dihydrothieno[3,2-d]pyrimidin-1(2H)-yl)propanenitrile]",16.4 nM
18,"COc1cc(-c2cc3[nH]c(=O)n([C@@H]4CCCNC(=O)C4)c(=O)c3cc2OC)c(C#N)cc1F [Example 56, (R)-5-fluoro-4-methoxy-2-(6-methoxy-2,4-dioxo-3-(2-oxoazepan-4-yl)-1,2,3,4-tetrahydroquinazolin-7-yl)benzonitrile]",795 nM
19,"COc1cc(-c2cc3[nH]c(=O)n([C@@H]4CCCNC(=O)C4)c(=O)c3s2)c(Cl)cc1Cl [Example 47, (R)-6-(2,4-dichloro-5-methoxyphenyl)-3-(2-oxoazepan-4-yl)thieno[3,2-d]pyrimidine-2,4(1H,3H)-dione]",27.7 nM
20,"O=C1CC(n2c(=O)[nH]c3cc(-c4ccccc4Cl)ccc3c2=O)CCCN1 (stereo not drawn) [Example 9, 7-(2-chlorophenyl)-3-(2-oxoazepan-4-yl)quinazoline-2,4(1H,3H)-dione]",4850 nM
21,"COc1cc(-c2cc3[nH]c(=O)n([C@@H]4CC(=O)NC[C@H](C)C4)c(=O)c3s2)c(Cl)cc1F (single isomer, unassigned) [Example 54]",20.4 nM
22,"CNC(=O)CCn1c(=O)n([C@@H]2CCCNC(=O)C2)c(=O)c2sc(-c3cc(OC)c(F)cc3Cl)cc21 [Example 42, (R)-3-(6-(2-chloro-4-fluoro-5-methoxyphenyl)-2,4-dioxo-3-(2-oxoazepan-4-yl)-3,4-dihydrothieno[3,2-d]pyrimidin-1(2H)-yl)-N-methylpropanamide]",242 nM
